These results are taken from article PMC6287599, “2,6-Bis(2-Benzimidazolyl)Pyridine (BBP) Is a Potent and Selective Inhibitor of Small Conductance Calcium-Activated Potassium (SK) Channels” (Frontiers in Pharmacology, 2018).

Common to all, as to format: cell-based
Data set [1] has as its target hSK1 (Homo sapiens, UniProt Q92952). The data set is described as follows: Automated patch clamp (QPatch 16), whole cell, stable HEK293 cell line expressing hSK1. Particulars: HEK stable line, 400 nM free intracellular calcium, mean ± SEM, n = 9. The protocol: (§1) Three different stable HEK293 cell lines expressing hSK1, hSK2 or hSK3 (NeuroSearch A/S, Ballerup, Denmark) and a CHO stable cell line expressing hERG (University of Copenhagen, Copenhagen, Denmark) were used for automated patch clamp. These cells were cultivated and prepared as previously described (Skarsfeldt et al., [2016]).
(§2) Automated patch clamp (QPatch 16, Sophion, Denmark) on SK-expressing HEK293 cell lines was conducted as previously described (Simó-Vicens et al., [2017b]). Briefly, SK currents were elicited by voltage-ramps starting at −80 mV and finishing at +80 mV from a holding potential of 0 mV. Extracellular solution contained 0.1 mM CaCl2, 3 mM MgCl2, 154 mM KCl, 10 mM HEPES and 10 mM glucose with pH 7.4. Intracellular solution for SK experiments contained 8.106 mM CaCl2 (final free calcium concentration of 400 nM), 1.167 mM MgCl2, 10 mM EGTA, 154 mM KCl, 10 mM HEPES, 31.25/ 10 mM KOH/EGTA and 15 mM KOH with pH 7.2. Automated patch clamp on hERG-expressing CHO cell line was performed also as previously described (Skarsfeldt et al., [2016]).
Individual IC50 values were calculated for each cell with the built-in nonlinear fit log(inhibitor) vs. normalized response equation:
Where Y is the normalized response, from 100, corresponding to current recorded during saline perfusion, down to 0, corresponding to currents recorded in the presence of bicuculline methiodide 100 μM. […]

The target of data set [2] is T1, hIK (Homo sapiens, UniProt O15554).
T1 construct: expressed in transfected cells; host or cells: HEK293 (transient, co-transfected with eGFP)
The data set is described as follows: Manual whole cell patch clamp, HEK293 transiently transfected with hIK. To be noted: BBP 1 μM, n = 6. (In general: The patch-clamp technique gives a direct electrical read-out from membranes.)
Procedure: HEK293 cells were transiently co-transfected with the plasmid of interest (hBK, hSK1, hSK2, hSK3 WT, rSK3 H491N, or hIK) and eGFP using standard Lipofectamine™ 2000 (Thermo Fisher Scientific, Waltham, Massachussets, USA) transfection protocols. After transfection, cells were incubated overnight before the experiments.
Manual patch clamp experiments were performed at room temperature in the whole cell configuration with a HEKA EPC9 amplifier and the Patchmaster software (HEKA Elektronik, Ludwigshafen, Germany). All currents were elicited every 2 s using an incremental 200 ms voltage-ramp protocol starting at −80 mV and finishing at +80 mV from a holding potential of 0 mV. Borosilicate glass pipettes were pulled with a horizontal puller (DMZ Universal Puller, Zeitz Instruments, Martinsried, Germany) with resistances 2.5–3 MΩ. Currents were measured using the same solutions as the ones used for automated patch clamp, with symmetrical potassium concentrations and a free intracellular calcium concentration of 400 nM. […] On the day of the experiment, cells were rinsed with magnesium-free PBS and detached with Detachin™ (Amsbio, Abingdon, United Kingdom) before being plated on 0.5 mm diameter coverslips. Only fluorescent cells were considered for patch clamp experiments.
To do so, we transiently transfected HEK293 WT cells with a plasmid containing one of the human SK channel subtypes, the big conductance calcium and voltage-activated potassium (BK) channel or the intermediate conductance calcium-activated potassium (IK) channel. […] Finally, a positive control was used to inhibit the remaining current and quantify the total effect of BBP. […]

Data set [3] has as its target hERG channel (Homo sapiens, UniProt Q12809). The data set is described as follows: Automated patch clamp, stable CHO cell line expressing hERG. Particulars: BBP 10 μM, automated patch clamp, CHO, n = 5. As for the experimental part: as §1
as §2, with “Automated patch clamp on hERG-expressing CHO cell line was performed also as previously described (Skarsfeldt et al., [2016]).” left out
(§3) To assess the effect of BBP on other calcium-activated potassium channels (hBK, hSK3 WT, rSK3 H491N, and hIK), each individual current was first normalized to its cell size using membrane's capacitance (pA/pF) before statistical analysis. […] Statistical significance between saline and the effect of both BBP and the corresponding reference compound was determined for each channel using one-way ANOVA analysis. […]

The target of data set [4] is hERG channel (against SK channel subtypes hSK1, hSK2, hSK3) (Homo sapiens, UniProt Q12809). The data set is described as above. Particulars: human, CHO cells stably expressing hERG. The protocol:
as §1
as §2, with “Automated patch clamp on hERG-expressing CHO cell line was performed also as previously described (Skarsfeldt et al., [2016]).” left out
as §3

Molecules are shown by their SMILES. Entries after “also recorded” stand apart in the source; their conditions may differ.

hERG channel, sequence (Q12809 whole entry): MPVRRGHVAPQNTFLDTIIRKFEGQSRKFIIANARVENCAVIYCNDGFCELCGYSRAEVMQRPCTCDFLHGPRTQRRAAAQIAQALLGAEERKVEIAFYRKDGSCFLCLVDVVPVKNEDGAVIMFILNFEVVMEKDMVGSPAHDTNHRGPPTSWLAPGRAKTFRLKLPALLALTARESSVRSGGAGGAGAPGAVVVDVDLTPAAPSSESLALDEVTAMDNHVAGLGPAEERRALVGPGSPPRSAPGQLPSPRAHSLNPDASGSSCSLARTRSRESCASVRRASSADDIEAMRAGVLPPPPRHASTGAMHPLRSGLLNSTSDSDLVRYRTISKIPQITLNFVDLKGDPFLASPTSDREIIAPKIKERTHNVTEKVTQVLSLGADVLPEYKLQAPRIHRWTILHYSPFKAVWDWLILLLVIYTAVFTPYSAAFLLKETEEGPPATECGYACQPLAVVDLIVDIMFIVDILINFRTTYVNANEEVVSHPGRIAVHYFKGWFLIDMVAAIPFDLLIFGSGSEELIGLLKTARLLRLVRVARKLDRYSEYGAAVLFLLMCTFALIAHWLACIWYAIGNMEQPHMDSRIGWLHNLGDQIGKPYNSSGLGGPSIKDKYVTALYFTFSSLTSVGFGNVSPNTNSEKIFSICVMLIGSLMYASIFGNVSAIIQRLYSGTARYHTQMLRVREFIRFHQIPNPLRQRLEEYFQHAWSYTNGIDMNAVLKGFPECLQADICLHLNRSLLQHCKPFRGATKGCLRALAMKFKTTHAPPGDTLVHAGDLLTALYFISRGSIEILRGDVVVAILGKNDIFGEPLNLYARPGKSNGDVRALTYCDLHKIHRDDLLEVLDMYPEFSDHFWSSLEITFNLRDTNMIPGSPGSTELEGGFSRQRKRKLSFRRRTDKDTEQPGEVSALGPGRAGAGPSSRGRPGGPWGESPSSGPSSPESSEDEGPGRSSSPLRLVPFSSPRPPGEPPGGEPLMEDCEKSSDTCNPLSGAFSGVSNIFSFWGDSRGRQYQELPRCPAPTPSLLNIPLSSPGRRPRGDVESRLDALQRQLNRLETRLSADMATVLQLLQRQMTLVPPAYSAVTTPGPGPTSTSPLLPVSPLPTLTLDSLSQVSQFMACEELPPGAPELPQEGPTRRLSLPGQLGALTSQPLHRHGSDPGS
hERG channel (against SK channel subtypes hSK1, hSK2, hSK3), sequence (Q12809 whole entry): as above

`c1cc(-c2nc3ccccc3[nH]2)nc(-c2nc3ccccc3[nH]2)c1` [BBP, 2,6-Bis(2-benzimidazolyl)pyridine]: the IC50 (in general, the concentration at which inhibition is half-maximal) in data set [1] amounted to 700 ± 200 nM. In data set [2], the “Effect on hIK current” value is given as “did not have any effect; also recorded: remained unaffected; also recorded: not affected”. In addition, the “Reduction of hERG current” value in data set [3] came out at 19 ± 3%. In addition, the selectivity ratio in data set [4] is 46.
